From patent US20200339691A1, “PROTEINACEOUS MOLECULES AND USES THEREFOR” (priority 2018, published 2020)
Entries after “also recorded” stand apart in the source; their conditions may differ. Where a SMILES comes first, the peptide text is derived from it. The star is where a group is joined. Myristoyl = CCCCCCCCCCCCCC(=O)*

Key:
[1] = test system: PD-L1; experiment: Immunofluorescence of PD-L1 in MDA-MB-231 cells, Example 14; assay type: cell-based, human; details: 50 μM, 72 hours
Protocol: (§1) 1×10^4 MDA-MB-231 cells were treated with 50 μM P1, P2, P3 (synthesized in accordance with Example 5) or vehicle (water) for 72 hours. Cells were fixed with 3.7% formaldehyde and permeabilized with 2% Triton-X-100, then probed with a primary rabbit antibody to PD-L2, primary goat antibody to PD-L1 and primary mouse antibody to CSV, followed by the corresponding secondary antibody conjugated to anti-mouse Alexa-Fluor 568, anti-goat Alexa-Fluor 633 or anti-rabbit Alexa-Fluor 488. Confocal laser scanning microscopy was used to measure the TNFI and TCFI as described above. At least 20 individual cells were analyzed per sample.

[2] = test system: EGFR; experiment: Immunofluorescence of EGFR in MDA-MB-231 cells; assay type: cell-based, human; details: 50 μM, 72 hours
Protocol: (§2) 1×10^4 MDA-MB-231 cells were seeded onto coverslips in 12 well plates with DMEM media. Cells were treated with 50 μM P1, P2, P3 or P4 (synthesized in accordance with Example 5) or vehicle (water) for 72 hours. Cells were fixed with 3.7% formaldehyde and permeabilized with 2% Triton-X-100, then probed with primary mouse antibodies to CSV, DMNT1, H3K9me3 or 5-methylcytosine; primary goat antibodies to SNAI1, SETDB1 or ABCB5; or primary rabbit antibodies to PD-L1, EGFR, EHMT2; followed by the corresponding secondary antibody conjugated to anti-mouse Alexa-Fluor 568, anti-goat Alexa-Fluor 633 or anti-rabbit Alexa-Fluor 488. Confocal laser scanning microscopy was used to measure the TFI, TNFI and TCFI as described above. At least 20 individual cells were analyzed per sample.

[3] = test system: cell surface vimentin (CSV); experiment: Immunofluorescence of CSV in MDA-MB-231 cells, Example 9; assay type: cell-based, human; details: 50 μM, 72 hours
Protocol: as §2

[4] = test system: PD-1; experiment: Immunofluorescence of PD-1 in Jurkat T-cells; assay type: cell-based; details: 50 μM, 72 hours, relative to the control
Protocol: 1×10^4 Jurkat T-cells were seeded onto coverslips in 12 well plates with DMEM media. Cells were treated with 50 μM P1, P2, P3 (synthesized in accordance with Example 5) or vehicle (water) for 72 hours. Cells were fixed with 3.7% formaldehyde and permeabilized with 2% Triton-X-100, then probed with a primary mouse antibody to PD-1 directly conjugated to Alexa-Fluor 647. Confocal laser scanning microscopy was used to measure the TNFI, TCFI and Fn/c as described above. At least 20 individual cells were analyzed per sample.

[5] = test system: MCF7 cells; details: MCF7 cells, 50 μM peptide, 48 hours
Protocol: P1 Analogues were synthesized in accordance with the procedure of Example 5. 4×10^4 MDA-MB-231 cells or 1×10^4 induced or non-induced MCF7 cells were seeded in a 12 well plate with 1 mL complete media overnight. Induced MCF7 cells were prepared by stimulating cells with PMA/TGF-β and incubating for 12 hours. Cells were treated with 50 μM test peptide (dissolved in water) for 48 hours. Cells were then washed twice with 1 mL PBS and harvested by trypsinisation. Non-adherent cells were removed during the washing steps. Adherent cells were collected, and were subsequently stained with anti-human CD44, CD24 and Hoechst 33342 antibodies on ice for 30 mins. FACS was performed on BD FACS LSRII to measure the percentage of CD44^hiCD24^lo CSCs by dividing CD44^hiCD24^lo events by total live cell counts (Hoechst negative population) (as described in Fillmore and Kuperwasser (2007) Breast Cancer Res, 9: 303). The percentage of viable cells was calculated by dividing total live cell events by total single cells as described previously (Siemann and Keng (1986), Cancer Res, 46: 3556-3559).

[6] = target: T1, p300 (Homo sapiens, UniProt Q09472); experiment: Immunofluorescence of p300 localization in MDA-MB-231 cells; assay type: cell-based; details: 50 μM
T1 construct: endogenous in cells; host or cells: MDA-MB-231
Protocol: The effect of P1, P2, P3 and P4 (synthesized in accordance with Example 5) on p300 localization was examined using confocal laser scanning microscopy. […] Cover slips were mounted on glass microscope slides with ProLong Diamond Antifade reagent (Life Technologies). Protein targets were localized by confocal laser scanning microscopy as described above. TNFI and PCC(r) were calculated using ImageJ software as previously described.

[7] = test system: PD-L1; experiment: Immunofluorescence of PD-L1 in MDA-MB-231 cells, Example 9; assay type: cell-based, human; details: 50 μM, 72 hours
Protocol: as §2

[8] = test system: SETDB1; experiment: Immunofluorescence of SETDB1 in MDA-MB-231 cells; assay type: cell-based, human; details: 50 μM, 72 hours
Protocol: (§3) Cells were treated with 50 μM P1, P2, P3 or P4 (synthesized in accordance with Example 5) or vehicle (water) for 72 hours. […] Confocal laser scanning microscopy was used to measure the […] and TCFI as described above. At least 20 individual cells were analyzed per sample.

[9] = test system: PD-L1 acetylated at lysine 263; experiment: Immunofluorescence (confocal) of acetylated PD-L1 in MDA-MB-231 cells, Example 6; assay type: cell-based, human; details: 50 μM, 72 hours
Protocol: Confocal laser scanning microscopy was employed to investigate the effect of P1, P2 and P3 (synthesized in accordance with Example 5) on the nuclear expression of PD-L1 and acetylated PD-L1 (PDL1-Ac) (FIG. 9).
1×10^4 MDA-MB-231 cells were seeded onto coverslips in 12 well plates with DMEM media overnight. Cells were treated with 50 μM P1, P2, P3 or P4 or vehicle (water) for 72 hours. Treated cells were fixed with 3.7% formaldehyde, and then permeabilised by incubating with 1% Triton X-100 for 20 min. Cells were then probed with a rabbit anti-PD-L1 antibody (Santa Cruz Biotechnology) or rabbit anti-acetylated PD-L1 (generated as described above) and visualized with a donkey anti-rabbit AF 488. Cover slips were mounted on glass microscope slides with ProLong Diamond Antifade reagent (Life Technologies). Protein targets were localized using confocal laser scanning microscopy. Single 0.5 μm sections were obtained using a Leica DMI8 microscope using 100× oil immersion lens running LAX software. The final image was obtained by averaging four sequential images of the same section. Digital images were analyzed using ImageJ software as described above.

[10] = test system: EHTM2; experiment: Immunofluorescence of EHTM2 in MDA-MB-231 cells; assay type: cell-based, human; details: 50 μM, 72 hours
Protocol: as §3

[11] = test system: MDA-MB-231 cells; experiment: FACS analysis of the cancer stem cell phenotype (CD44^high/CD24^low) in response to P1, P2 and P3; assay type: cell-based, human; details: 6.25-400 μM, 72 hours
Protocol: 5×10^4 MDA-MB-231 cells were seeded with 1 mL of complete DMEM in 12 well plates overnight. […] Samples were harvested by trypsinization followed by washing with DPBS containing 2% HI-FBS. FACS staining was performed using anti-human CD44-APC, anti-human CD24-PE, Hoechst and anti-human EpCAM antibody cocktails. Data was collected from a BD-FACSLSR-II flow cytometer. Treestar FlowJo was used for data analysis.

[12] = test system: PD-L2; experiment: Immunofluorescence of PD-L2 in MDA-MB-231 cells; assay type: cell-based, human; details: 50 μM, 72 hours, relative to the control
Protocol: as §1

T1 sequence (Q09472 whole entry): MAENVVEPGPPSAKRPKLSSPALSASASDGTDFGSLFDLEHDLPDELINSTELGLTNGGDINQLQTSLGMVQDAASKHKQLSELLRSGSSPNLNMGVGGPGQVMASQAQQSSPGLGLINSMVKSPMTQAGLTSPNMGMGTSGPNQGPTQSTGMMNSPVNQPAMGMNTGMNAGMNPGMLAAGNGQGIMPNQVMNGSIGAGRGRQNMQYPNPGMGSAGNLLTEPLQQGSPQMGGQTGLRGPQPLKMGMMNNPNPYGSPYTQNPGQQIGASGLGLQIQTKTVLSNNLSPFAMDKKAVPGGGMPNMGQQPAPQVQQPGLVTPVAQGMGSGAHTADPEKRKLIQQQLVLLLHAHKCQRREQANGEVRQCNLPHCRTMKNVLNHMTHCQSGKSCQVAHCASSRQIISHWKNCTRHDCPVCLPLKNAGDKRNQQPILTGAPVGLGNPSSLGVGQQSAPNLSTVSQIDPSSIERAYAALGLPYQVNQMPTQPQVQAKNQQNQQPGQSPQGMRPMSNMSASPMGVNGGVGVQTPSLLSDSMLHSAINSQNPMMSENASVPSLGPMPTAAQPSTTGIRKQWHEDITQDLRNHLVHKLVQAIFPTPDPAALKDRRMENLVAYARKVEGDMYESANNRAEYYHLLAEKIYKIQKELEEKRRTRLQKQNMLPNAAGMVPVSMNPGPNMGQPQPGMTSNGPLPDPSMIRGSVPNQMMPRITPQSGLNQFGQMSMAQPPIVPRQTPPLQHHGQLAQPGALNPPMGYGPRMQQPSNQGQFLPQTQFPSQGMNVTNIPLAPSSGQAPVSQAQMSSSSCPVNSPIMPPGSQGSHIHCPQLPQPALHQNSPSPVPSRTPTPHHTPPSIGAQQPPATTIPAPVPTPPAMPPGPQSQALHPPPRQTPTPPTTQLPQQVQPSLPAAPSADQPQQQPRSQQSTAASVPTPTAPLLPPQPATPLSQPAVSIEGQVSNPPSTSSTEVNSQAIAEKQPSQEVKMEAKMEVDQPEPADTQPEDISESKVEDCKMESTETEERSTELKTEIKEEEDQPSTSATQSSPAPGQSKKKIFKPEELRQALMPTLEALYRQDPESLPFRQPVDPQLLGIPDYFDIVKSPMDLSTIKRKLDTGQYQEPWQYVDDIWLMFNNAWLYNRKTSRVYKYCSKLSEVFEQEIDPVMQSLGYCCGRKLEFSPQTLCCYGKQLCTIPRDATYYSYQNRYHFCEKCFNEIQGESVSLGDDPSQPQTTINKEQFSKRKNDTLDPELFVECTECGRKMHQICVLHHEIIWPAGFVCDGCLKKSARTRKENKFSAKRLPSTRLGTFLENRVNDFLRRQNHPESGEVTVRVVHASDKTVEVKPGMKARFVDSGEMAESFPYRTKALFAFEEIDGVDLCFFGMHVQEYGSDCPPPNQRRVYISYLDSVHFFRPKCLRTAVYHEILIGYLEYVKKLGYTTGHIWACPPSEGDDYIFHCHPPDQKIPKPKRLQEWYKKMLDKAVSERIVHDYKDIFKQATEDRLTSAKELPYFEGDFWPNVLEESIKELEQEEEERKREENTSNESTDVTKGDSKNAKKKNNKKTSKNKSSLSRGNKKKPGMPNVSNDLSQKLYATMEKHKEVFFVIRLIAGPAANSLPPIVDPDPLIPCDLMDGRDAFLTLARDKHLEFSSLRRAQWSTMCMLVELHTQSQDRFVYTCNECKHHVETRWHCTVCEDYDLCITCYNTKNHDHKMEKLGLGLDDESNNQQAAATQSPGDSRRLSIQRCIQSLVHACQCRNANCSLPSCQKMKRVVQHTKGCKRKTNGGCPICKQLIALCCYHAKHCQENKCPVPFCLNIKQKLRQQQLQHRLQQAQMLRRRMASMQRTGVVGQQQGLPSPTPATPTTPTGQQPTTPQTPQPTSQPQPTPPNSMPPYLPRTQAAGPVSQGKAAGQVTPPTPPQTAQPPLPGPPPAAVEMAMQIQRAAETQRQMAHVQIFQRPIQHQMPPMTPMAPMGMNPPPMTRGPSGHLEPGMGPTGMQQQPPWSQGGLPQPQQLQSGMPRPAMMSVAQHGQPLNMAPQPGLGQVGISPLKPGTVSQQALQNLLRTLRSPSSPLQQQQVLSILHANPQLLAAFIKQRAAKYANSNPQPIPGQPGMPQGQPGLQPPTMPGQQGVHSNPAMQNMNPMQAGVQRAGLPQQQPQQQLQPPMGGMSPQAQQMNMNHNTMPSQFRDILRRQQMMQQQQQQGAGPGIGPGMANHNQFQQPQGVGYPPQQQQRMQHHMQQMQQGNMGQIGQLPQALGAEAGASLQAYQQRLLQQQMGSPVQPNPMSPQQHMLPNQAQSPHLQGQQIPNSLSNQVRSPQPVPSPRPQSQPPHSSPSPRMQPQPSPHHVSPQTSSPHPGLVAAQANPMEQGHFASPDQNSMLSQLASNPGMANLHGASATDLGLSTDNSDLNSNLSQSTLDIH

Row | Compound | nuclear localization of PD-L1 [1] | expression of EGFR [2] | expression of CSV [3] | PD-1 nuclear localization [4] | % Viable Cells [5] [%] | COI Count [5] | COI/Single Cell Count [5] | COI/Single Cells/Live Count [5] | Total Count [5] | p300 nuclear expression [6] | PD-L1 nuclear localization [7] | expression / nuclear localization of SETDB1 [8] | Fn/c of acetylated PD-L1 [9] | total nuclear fluorescence intensity (TNFI) of acetylated PD-L1 [9] | expression / localization of EHTM2 [10] | cancer stem cell phenotype (CD44^high/CD24^low) [11] | PD-L2 nuclear localization [12]
1 | CCCCCCCCCCCCCC(=O)N[C@@H](CC(C)C)C(=O)N[C@H](C(=O)N[C@@H](Cc1ccccc1)C(=O)N[C@H](C(=O)N[C@@H](Cc1ccccc1)C(=O)N[C@@H](CCCNC(=N)N)C(=O)N[C@@H](CC(C)C)C(=O)N[C@@H](CCCNC(=N)N)C(=O)N[C@@H](CCCCNC(C)=O)C(=O)NCC(=O)N[C@@H](CCCNC(=N)N)C(=O)N[C@@H](CCSC)C(=O)N[C@@H](CCSC)C(=O)N[C@@H](CC(=O)O)C(=O)N[C@H](C(=O)N[C@@H](CCCCN)C(=O)N[C@@H](CCCCN)C(N)=O)C(C)C)[C@@H](C)CC)[C@@H](C)O [Peptide P3, Myristoyl-LTFIFRLRK(Ac)GRMMDVKK-NH2] (Myristoyl-LTFIFRLRK(Ac)GRMMDVKK-NH2) | significantly inhibited | uniformly inhibited | uniformly inhibited | significantly inhibited | 98.47 | 6007 | 5039 | 4962 | 10000 | significantly decreased; also recorded: greatest effect | significantly inhibited | significantly abrogated | significantly reduced | significantly reduced | significantly abrogated | significantly inhibited; also recorded: greatest inhibition | significantly inhibited
2 | CCCCCCCCCCCCCC(=O)N[C@@H](CC(C)C)C(=O)N[C@H](C(=O)N[C@@H](Cc1ccccc1)C(=O)N[C@H](C(=O)N[C@@H](Cc1ccccc1)C(=O)N[C@@H](CCCNC(=N)N)C(=O)N[C@@H](CC(C)C)C(=O)N[C@@H](CCCNC(=N)N)C(=O)N[C@@H](CCC(N)=O)C(=O)NCC(=O)N[C@@H](CCCNC(=N)N)C(=O)N[C@@H](CCSC)C(=O)N[C@@H](CCSC)C(=O)N[C@@H](CC(=O)O)C(=O)N[C@H](C(=O)N[C@@H](CCCCN)C(=O)N[C@@H](CCCCN)C(N)=O)C(C)C)[C@@H](C)CC)[C@@H](C)O [Peptide P2, Myristoyl-LTFIFRLRQGRMMDVKK-NH2] (Myristoyl-LTFIFRLRQGRMMDVKK-NH2) | significantly inhibited | uniformly inhibited | uniformly inhibited | significantly inhibited | 97.19 | 5603 | 4482 | 4356 | 10000 | significantly decreased | significantly inhibited | significantly abrogated | significantly reduced | significantly reduced | significantly abrogated | significantly inhibited | significantly inhibited
3 | CCCCCCCCCCCCCC(=O)N[C@@H](CC(C)C)C(=O)N[C@H](C(=O)N[C@@H](Cc1ccccc1)C(=O)N[C@H](C(=O)N[C@@H](Cc1ccccc1)C(=O)N[C@@H](CCCNC(=N)N)C(=O)N[C@@H](CC(C)C)C(=O)N[C@@H](CCCNC(=N)N)C(=O)N[C@@H](CCCCN)C(=O)NCC(=O)N[C@@H](CCCNC(=N)N)C(=O)N[C@@H](CCSC)C(=O)N[C@@H](CCSC)C(=O)N[C@@H](CC(=O)O)C(=O)N[C@H](C(=O)N[C@@H](CCCCN)C(=O)N[C@@H](CCCCN)C(N)=O)C(C)C)[C@@H](C)CC)[C@@H](C)O [Peptide P1, Myristoyl-LTFIFRLRKGRMMDVKK-NH2] (Myristoyl-LTFIFRLRKGRMMDVKK-NH2) | significantly inhibited | uniformly inhibited | uniformly inhibited | significantly inhibited | 95.65 | 6567 | 5585 | 5342 | 10000 | significantly decreased | significantly inhibited | significantly abrogated | significantly reduced | significantly reduced | significantly abrogated | significantly inhibited | significantly inhibited
